In brackets after ≈: the same amount, converted by molar mass.
Columns and labels:
Assay type in all cases: cell-based
Cryptococcus laurentii = experiment: FISP disc diffusion assay; set-up: key: F: clear zone, fuzzy edges; S: slightly hazy zone (some growth observed throughout zone); H: hazy zone (considerable growth observed throughout zone); V: very hazy zone (zone of inhibition is barely discernable); R: zone displays a ring of resistant growth; no qualifier: clear zone throughout, sharp edges; conditions: 250 μg/ml in CH2Cl2
Excerpt: (§1) The FISP assay employs disc diffusion susceptibility testing methods to generate a spectrum of activity against a panel of representative yeasts, filamentous fungi and bacteria.
(§2) The yeasts employed in the assay are Saccharomyces cerevisiae, Candida albicans, Candida tropicalis, Candida rugosa, Brettanomyces bruxellensis, Torulospora hansenii, Candida guilliermondi, Candida pseudotropicalis, Torulopsis glabrata, Cryptococcus albidus, Cryptococcus laurentii and Kluyveromyces fragilis.
(§3) For carrying out the assay, seeded assay plates are prepared in the following manner according to the type of assay strain.
(§4) Inocula for yeasts and bacterial strains are prepared from overnight broth cultures then diluted into potato dextrose agar to a final concentration of either 40 percent or 70 percent transmission at 660 nm.
(§5) Assay plates for the yeasts and filamentous fungi are prepared by diluting the inoculum into appropriate molten agar medium, cooled to 45° C. to obtain a final concentration of 4 percent.
(§6) The seeded agar media thus prepared are dispensed into petri dishes for assays (11 ml per dish).
(§7) The samples to be tested for production of antifungal agent are applied to 6.2 mm filter paper discs (25 μl/disc) and air dried at 24° C. When the sample to be tested is crude broth, it may be centrifuged prior to application. The discs bearing the material to be tested are then applied employing sterile conditions to the seeded assay plates. The assay plates are then incubated at either 28° C. or 37° C. for 24 hours. In one of the assays for Bacillus subtilis, the sample is applied to a disc previously impregnated with 4M potassium chloride at 25 μl/disc and then air dried.
(§8) Following incubation, the inhibition zones are measured and recorded. The measurements are made from the extreme edge where growth differs from the background zone. The zones are noted as to appearance as fuzzy edge and clear center, hazy throughout, slightly hazy, very hazy or ringed.
(§9) FISP data is reported as the diameter (in mm.) of the zone of inhibition of growth in agar diffusion assays. The zone is determined by measuring growth that differs from the background lawn. A qualifier is also added to describe the zone quality as listed below: no qualifier: clear zone throughout, sharp edges

Candida pseudotropicalis = experiment: FISP disc diffusion assay; set-up: key: F: clear zone, fuzzy edges; S: slightly hazy zone (some growth observed throughout zone); H: hazy zone (considerable growth observed throughout zone); V: very hazy zone (zone of inhibition is barely discernable); R: zone displays a ring of resistant growth; no qualifier: clear zone throughout, sharp edges; conditions: 250 μg/ml in CH2Cl2
Excerpt: as §1, §2, §3, §4, §5, §6, §7, §8, §9

Kluyveromyces fragilis = experiment: FISP disc diffusion assay; set-up: key: F: clear zone, fuzzy edges; S: slightly hazy zone (some growth observed throughout zone); H: hazy zone (considerable growth observed throughout zone); V: very hazy zone (zone of inhibition is barely discernable); R: zone displays a ring of resistant growth; no qualifier: clear zone throughout, sharp edges; conditions: 250 μg/ml in CH2Cl2
Excerpt: as §1, §2, §3, §4, §5, §6, §7, §8, §9

Candida rugosa = experiment: FISP disc diffusion assay; set-up: key: F: clear zone, fuzzy edges; S: slightly hazy zone (some growth observed throughout zone); H: hazy zone (considerable growth observed throughout zone); V: very hazy zone (zone of inhibition is barely discernable); R: zone displays a ring of resistant growth; no qualifier: clear zone throughout, sharp edges; conditions: 250 μg/ml in CH2Cl2
Excerpt: as §1, §2, §3, §4, §5, §6, §7, §8, §9

[1] = system: Brettanomyces bruxellensis; experiment: FISP disc diffusion assay; set-up: key: F: clear zone, fuzzy edges; S: slightly hazy zone (some growth observed throughout zone); H: hazy zone (considerable growth observed throughout zone); V: very hazy zone (zone of inhibition is barely discernable); R: zone displays a ring of resistant growth; no qualifier: clear zone throughout, sharp edges; conditions: 250 μg/ml in CH2Cl2
Excerpt: as §1, §2, §3, §4, §5, §6, §7, §8, §9

Candida tropicalis = experiment: FISP disc diffusion assay; set-up: key: F: clear zone, fuzzy edges; S: slightly hazy zone (some growth observed throughout zone); H: hazy zone (considerable growth observed throughout zone); V: very hazy zone (zone of inhibition is barely discernable); R: zone displays a ring of resistant growth; no qualifier: clear zone throughout, sharp edges; conditions: 250 μg/ml in CH2Cl2
Excerpt: as §1, §2, §3, §4, §5, §6, §7, §8, §9

Cryptococcus albidus = experiment: FISP disc diffusion assay; set-up: key: F: clear zone, fuzzy edges; S: slightly hazy zone (some growth observed throughout zone); H: hazy zone (considerable growth observed throughout zone); V: very hazy zone (zone of inhibition is barely discernable); R: zone displays a ring of resistant growth; no qualifier: clear zone throughout, sharp edges; conditions: 250 μg/ml in CH2Cl2
Excerpt: as §1, §2, §3, §4, §5, §6, §7, §8, §9

Torulospora hansenii = experiment: FISP disc diffusion assay; set-up: key: F: clear zone, fuzzy edges; S: slightly hazy zone (some growth observed throughout zone); H: hazy zone (considerable growth observed throughout zone); V: very hazy zone (zone of inhibition is barely discernable); R: zone displays a ring of resistant growth; no qualifier: clear zone throughout, sharp edges; conditions: 250 μg/ml in CH2Cl2
Excerpt: as §1, §2, §3, §4, §5, §6, §7, §8, §9

T. mentagrophytes = experiment: Microdilution broth assay; conditions: Trichophyton mentagrophytes; strain MF 4864; 35° C., 48-72 hours; read-out: MIC (minimum inhibitory concentration)
Description: (§10) The broad spectrum antifungal activity of the present compounds was further determined by broth dilution methods. The compounds are particularly active towards filamentous fungi and yeasts including Candida albicans and Crypt. neoformans. The sensitivity of filamentous fungi and yeasts was determined using inhibitor dilution assays in microtiter format. A standardized spore suspension for testing the filamentous fungi was prepared by inoculating sterile distilled water with spores such that 1.5-7.5×10^3 colony forming units were added per well. The microtiter wells were filled with 75 μl of yeast nitrogen base containing 1% Dextrose medium (YNB/D) containing compound. Fifty μl of inoculated YNB/D medium was then added to the wells.
(§11) The sensitivity of yeasts was determined by inoculating sterile distilled water with aliquots of a 4-hour yeast culture grown in Yeast Morphology (YM) media at 35° C. and diluting in YNB/D to yield a final concentration of 1.5-7.5×10^3 colony forming units/well. Seventy-five μl of inoculated media was added per well. To test the sensitivity of yeast, compound was solubilized in 10 percent aqueous DMSO at 2.56 mg/ml. The compound was diluted serially in YNB/D from 128 to 0.06 μg/ml. The wells were filled with 75 μl of drug containing media. […] Representative of the antifungal activity are the minimum inhibitory concentration and minimum fungicidal concentration data shown below in Table II: […]

Aspergillus fumigatus = experiment: Microdilution broth assay; conditions: strain MF 4839, 35° C., 48-72 hours, read-out: MIC (minimum inhibitory concentration)
Description: as §10, §11

Cryptococcus neoformans = experiment: Microdilution broth assay; conditions: strain MY 1051, 35° C., 24 to 48 hours, read-out: MIC (minimum inhibitory concentration)
Description: as §10, §11

Streptomyces sp. = experiment: FISP disc diffusion assay; set-up: key: F: clear zone, fuzzy edges; S: slightly hazy zone (some growth observed throughout zone); H: hazy zone (considerable growth observed throughout zone); V: very hazy zone (zone of inhibition is barely discernable); R: zone displays a ring of resistant growth; no qualifier: clear zone throughout, sharp edges; conditions: 250 μg/ml in CH2Cl2
Description: as §1
The bacteria employed in the assay are Streptomyces sp., Acholeplasma laidlawii and Bacillus subtilis.
as §3, §4, §6
as §7, with “In one of the assays for Bacillus subtilis, the sample is applied to a disc previously impregnated with 4M potassium chloride at 25 μl/disc and then air dried.” left out
Following incubation, the inhibition zones are measured and recorded. […]
FISP data is reported as the diameter (in mm.) of the zone of inhibition of growth in agar diffusion assays. The zone is determined by measuring growth that differs from the background lawn. […]

For `CC(/C=C/C=C(\C)C(O)C(C)C(=O)O[C@H]1C[C@H](C)C=C2C=C[C@@]3(C)O[C@@H](O)CC(=O)[C@]3(C)[C@H]21)=C\C=C\C(=O)O` (stereo partly drawn) [Compound A], the zone quality qualifier (Cryptococcus laurentii) was “H and V”, the zone quality qualifier (Candida pseudotropicalis) was “V” and the zone quality qualifier (Kluyveromyces fragilis) was “V”. For the same compound, the zone quality qualifier (Candida rugosa) was “S”, the zone quality qualifier [1] was “S” and the zone quality qualifier (Candida tropicalis) was “S”. The zone quality qualifier (Cryptococcus albidus) was “V”, the zone quality qualifier (Torulospora hansenii) was “H” and the MIC (T. mentagrophytes) was 32 µg/mL (≈ 59.2 µM). The MIC (Aspergillus fumigatus) was 64 µg/mL (≈ 118 µM), the MIC (Cryptococcus neoformans) was 32 µg/mL (≈ 59.2 µM) and the zone quality qualifier (Streptomyces sp.) was “V”.

From patent publication US5244795A, “Processes for preparing cholesterol lowering compounds” (Merck & Co., Inc., priority 1992, dated 1993)
